Measurements as given in US10563263B2, “Genetic polymorphisms associated with statin response and cardiovascular diseases, methods of detection and uses thereof” (CELERA CORPORATION, priority 2010, dated 2020).

Tested on: CHD
Experiment: Meta-analysis of CARE and WOSCOPS combined, synergy index, CHD endpoint
Format: in vivo, human
Excerpt: Tables 4-5 provide meta-analyses of CARE and WOSCOPS combined (2nd section of each table) for two endpoints (CHD and CVD) and three genetic models (dominant, recessive, and additive), as well as logistic regression analyses of CARE (3rd section of each table) and WOSCOPS (4th section of each table) individually.
Tables 12 and 17 provide results of meta-analysis of the CARE and WOSCOPS sample sets combined by direct genotyping and by imputing genotypes.
“P” indicates the p-value, and “P(R)” (or “P.R.”) indicates the p-value random effect. Both of these are p-values corresponding to a statistical test of whether the combined synergy index is equal to one but use different assumptions to derive the p-value. “P” is calculated using a fixed effects model, and “P(R)” is calculated using a random effects model.
“OR” indicates the odds ratio (synergy index) calculated from a fixed effects model, and “OR(R)” (or “OR.R.”) indicates the odds ratio (synergy index) calculated from a random effects model.

[1] = rs11743355 allele C DOMINANT Imputed
[2] = rs11746806 allele T ADDITIVE Imputed
[3] = rs11746806 allele T DOMINANT Imputed
[4] = rs11746959 allele T ADDITIVE Imputed
[5] = rs11746959 allele T DOMINANT Imputed
[6] = rs11749272 allele T DOMINANT Imputed
[7] = rs11901899 allele A DOMINANT Imputed
[8] = rs11926319 allele G ADDITIVE Imputed
[9] = rs11926319 allele G DOMINANT Imputed
[10] = rs11956952 allele C DOMINANT Imputed
[11] = rs12025826 allele G DOMINANT Imputed
[12] = rs12153185 allele T DOMINANT Imputed
[13] = rs12182651 allele T ADDITIVE Imputed
[14] = rs12182651 allele T DOMINANT Imputed
[15] = rs12193568 allele G DOMINANT Imputed
[16] = rs12264914 allele C DOMINANT Imputed
[17] = rs12307767 allele C DOMINANT Imputed
[18] = rs12407412 allele C ADDITIVE Imputed
[19] = rs12407412 allele C DOMINANT Imputed
[20] = rs12420184 allele G DOMINANT Imputed
[21] = rs12422750 allele A DOMINANT Imputed
[22] = rs12446951 allele A ADDITIVE Imputed
[23] = rs12446951 allele A DOMINANT Imputed
[24] = rs12457400 allele G DOMINANT Imputed
[25] = rs12521291 allele G ADDITIVE Imputed
[26] = rs12526849 allele T ADDITIVE Imputed
[27] = rs12526849 allele T GENOTYPIC Imputed
[28] = rs12543110 allele G DOMINANT Imputed
[29] = rs12678600 allele A DOMINANT Imputed
[30] = rs12719415 allele T DOMINANT Imputed
[31] = rs12831292 allele G DOMINANT Imputed

CC[C@H](C)C(=O)O[C@H]1C[C@H](O)C=C2C=C[C@H](C)[C@H](CC[C@@H](O)C[C@@H](O)CC(=O)O)[C@H]21 [Pravastatin, pravastatin]
OR(R) (rs11743355 allele C ADDITIVE Imputed): 0.1796
OR [1]: 0.1817
OR(R) [1]: 0.1817
OR [2]: 0.2206
OR(R) [2]: 0.2206
OR [3]: 0.2253
OR(R) [3]: 0.2253
OR [4]: 0.1976
OR(R) [4]: 0.1976
OR [5]: 0.2007
OR(R) [5]: 0.2007
OR [6]: 0.5734
OR(R) [6]: 0.5734
OR [7]: 1.5824
OR(R) [7]: 1.5824
Meta-analysis OR (rs11925875 allele A vs G (ref)): 0.66
OR [8]: 0.4343
OR(R) [8]: 0.4343
OR [9]: 0.4237
OR(R) [9]: 0.4237
OR [10]: 0.6564
OR(R) [10]: 0.6564
OR [11]: 1.5794
OR(R) [11]: 1.5794
OR [12]: 0.5759
OR(R) [12]: 0.5759
OR [13]: 2.1926
OR(R) [13]: 2.1926
OR [14]: 2.4795
OR(R) [14]: 2.4795
OR [15]: 1.7403
OR(R) [15]: 1.8042
OR [16]: 0.6442
OR(R) [16]: 0.6442
OR [17]: 0.6667
OR(R) [17]: 0.6667
OR [18]: 1.6268
OR(R) [18]: 1.6268
OR [19]: 1.7055
OR(R) [19]: 1.7055
OR [20]: 0.5645
OR(R) [20]: 0.5645
OR [21]: 0.6919
OR(R) [21]: 0.6919
OR [22]: 2.3413
OR(R) [22]: 2.3413
OR [23]: 2.3135
OR(R) [23]: 2.3135
OR [24]: 0.5884
OR(R) [24]: 0.5884
OR [25]: 0.6857
OR(R) [25]: 0.6857
OR [26]: 1.4208
OR(R) [26]: 1.4208
OR [27]: 2.0445
OR(R) [27]: 2.0445
OR [28]: 1.6401
OR(R) [28]: 1.6401
Meta-analysis OR (rs12556591 allele G vs A (ref)): 0.59
Meta-analysis OR (rs12657484, allele A1 G (non-ref), A2 A (ref), endpoint/model not given): 1.49
OR [29]: 0.6104
OR(R) [29]: 0.6104
OR [30]: 0.5662
OR(R) [30]: 0.5662
OR [31]: 0.5982
OR(R) [31]: 0.5982
Meta-analysis OR (rs13279522 allele G vs A (ref)): 0.62
Meta-analysis OR (rs13314266 allele G vs A (ref)): 0.51
Meta-analysis OR (rs13318232 allele G vs A (ref)): 0.52
Meta-analysis OR (rs16861467, allele A1 G (non-ref), A2 A (ref), endpoint/model not given): 0.49
Meta-analysis OR (rs17076974 allele A vs G (ref)): 1.40
Meta-analysis OR (rs17546598 allele A vs G (ref)): 1.71
Meta-analysis OR (rs17706237 allele G vs A (ref)): 1.69
Meta-analysis OR (rs17716275, allele A1 A (non-ref), A2 G (ref), endpoint/model not given): 2.03
Meta-analysis OR (rs72746987 allele A vs G (ref)): 0.40
